This is an account of results in patent publication US8653132B2, “Phosphaplatins and their use in pharmaceutical compositions” (Ohio University, priority 2007, dated 2014).

Each structure is given as a SMILES string. “Also recorded” adds a separate entry of the source. Where only a bound is given, the exact number is not on record here.

Data set [1] can be described thus: pKa from 31P chemical shift as a function of pH. It is filed as physicochemical. To be noted: for pKa1 / pKa2: calculated from phosphorus-31 chemical shifts.
Data set [2] has as its system A2780 human ovarian cancer cells. As to the kind of experiment: Clonogenic assay, A2780. It is filed as cell-based. To be noted: 1 hour drug treatment, 1 week colony formation, read-out: IC50 A780. How it is done: (§1) Human ovarian cancer cells, A2780, were obtained from Dr. Thomas Hamilton (Fox Chase Cancer Center, Philadelphia, Pa.). Cells were cultured on monolayer using RPMI 1640 supplemented with 10% fetal bovine serum, 2 mM glutamine, 0.25 units/mL insulin and penicillin/streptomycin in a 37 degrees C. incubator continuously gassed with 5% CO2. Cells were subcultured using 0.0625% trypsin in HBSS to maintain cells in exponential growth.
(§2) IC50 values were determined using a clonogenic assay. Briefly, 500 A2780 cells from a single cell suspension were plated onto 60mm Petri plates 24 hours before drug treatment to permit cell attachment. On the day of drug treatment, the medium was decanted and replaced with the drug and these treated cells were placed back into the 37 degrees C. incubator for 1 hour. Triplicate plates were set up for each drug concentration. After the 1 hour drug treatment, the drug containing medium was decanted and replaced with fresh medium. These plates were returned to the 37 degrees C. incubator for 1 week for colony formation. Colonies were fixed and stained using 2% crystal violet in absolute methanol. Colonies containing more than 50 cells were scored. The number of scored colonies from the triplicate plates was averaged and this number was divided by the number of cells plated to obtain a value for the fraction of cells forming colonies. These values for fraction of cells forming colonies were then corrected for plating efficiency by dividing it by the number of cells forming colonies in plates that were not treated with drug.

Data set [3] concerns A2780/C30 cisplatin-resistant ovarian cell line. The data set is described as follows: Clonogenic assay, cisplatin/carboplatin-resistant C30. The class given is cell-based, human. To be noted: 1 hour drug treatment, 1 week colony formation. The protocol:
as §1, with “A cisplatin-resistant Ovarian cell line (C30) (Hamaguchi, et al., 1993),” for “Human ovarian cancer cells, A2780, were”, “Pa.), was treated with the monomeric platinum complexes of the present invention (shown in FIG. 2). This cell line is also cross resistant to carboplatin.” for “Pa.).”, “0.025%” for “0.0625%”
as §2, with “500 C30” for “500 A2780”, “onto 60 mm” for “onto 60mm”, “the one” for “the 1”, “dividing them” for “dividing it”

The next data set relates to CHO cell line. As to the kind of experiment: Cytotoxic assay, CHO. The class given is cell-based. The text has this: In some embodiments, the complexes of the present invention are useful for treating various cancers. […] The complexes of the present invention are particularly desirable because they may have reduced toxicity in vivo.
The next data set deals with guanine base. The data set is described as follows: Guanine base binding by proton NMR. Particulars: cisplatin after 48 hours, am-2 96 hours, dach-2 106 hours. How it is done:
FIG. 12 is a comparison of guanine base binding (the predominant DNA binding site of cisplatin) among cisplatin (bottom), am-2 (middle), and dach-2 (top) by proton NMR spectroscopy. […] The bottom spectrum was recorded after 48 hours. The middle and top spectra were recorded after 96 and 106 hours, respectively.
(§3) Proton NMR spectroscopic experiments were conducted on a Bruker 500 MHz NMR instrument in 99% (atom) D2O with a water suppression pulse sequence. Samples contained cisplatin (2.0 mM) or pyrodach-2 (2.0 mM) and nucleotides (5′-dGMP, 5′-dAMP, dGpG (5.0 mM)), and, single- and double stranded DNA (calf thymus, 5.0 mM) at pH 7.0 maintained by phosphate and carbonate buffers (10-20 mM). Reactions of cisplatin (0.25 mM) and pyrodach-2 (0.25 mM) with a synthetic 25-mer: 5′-[…]-3′ (SEQ ID NO: 1) (0.25 mM) were also performed under identical conditions. Reactions were carried out up to 7 days, and ^1H and ^31P NMR spectra were recorded at regular time intervals. Usually, a pulse width of 5 μs with a 1.0 s repetition delay was used for the measurements. Typically, a sweepwidth of 10,000 Hz and 32 K data points were selected to collect the Free Induction Decays. A line broadening factor of 1 Hz was for applied Fourier transformation. The chemical shifts, with reference to H—O-D peak, are at 4.67 ppm.

For a further data set, the system named is A2780 cells. As to the kind of experiment: Cellular accumulation of platinum by atomic absorption, A2780. To be noted: for Cellular accumulation of platinum: 1 hr exposure. It is filed as cell-based, human. How it is done:
(§4) Platinum content was quantitatively estimated on a Graphite Furnace Atomic Absorption Spectrometer (Perkin Elmer AA-600) from calibration curves established by using cisplatin or pyrodach-2 in water. Cells (5×10^6) were seeded in T75 cm^2 flasks. After 24 h, these cells were then treated with the different concentrations (0, 10, 20, 30 and 50 μM) of cisplatin and pyrodach-2. After 1 hr exposure with the platinum complexes, the drug-containing medium was removed and the cells were washed with ice-cold phosphate-buffered saline (PBS). The cells were then trypsinized and centrifuged into a pellet. Cell pellets were digested in concentrated HNO3 and H2O2 prior to analysis, according to the method of McGahan. Data reported in Table 4 were collected from three independent experiments each was carried out in duplicate. For the cisplatin accumulation, data were obtained from triplicate runs from a single sample at a given concentration.

For data set [4], the system named is A2780/C30 cells. As to the kind of experiment: Cellular accumulation of platinum by atomic absorption, A2780/C30. It is filed as cell-based, human. Particulars: 1 hr exposure. How it is done: as §4
The subject of data set [5] is synthetic 25-mer oligonucleotide (SEQ ID NO:1). The data set is described as follows: Platinum-DNA binding by NMR, 25-mer oligonucleotide. Particulars: 1H NMR, identical conditions for both complexes. The protocol: (§5) In the associated experiment, dach-2 was allowed to react with double-stranded calf-thymus DNA, a synthetic oligonucleotide (5′-[…]-3′; SEQ ID NO:1), a dinucleotide (dGpG), and nucleotide monophosphates (5′-dGMP and 5′-dAMP) at concentrations as much as 250-times higher than those of cellular doses. The extent of DNA binding was monitored by ^1H NMR spectroscopy. In parallel, similar reactions with cisplatin were conducted under identical conditions.
as §3, with “The chemical shifts, with reference to H—O-D peak, are at 4.67 ppm.” left out

Data set [6] concerns calf-thymus DNA, oligonucleotide, dGpG, 5'-dGMP and 5'-dAMP. As to the kind of experiment: Platinum binding to DNA and nucleotides by NMR. Particulars: 1H NMR, up to seven days. The protocol: as §5
as §3, with “The chemical shifts, with reference to H—O-D peak, are at 4.67 ppm.” left out

Another data set relates to fas. As to the kind of experiment: Apoptotic gene array, real-time PCR: fas. The class given is cell-based. To be noted: preliminary. The protocol: (§6) Preliminary gene expression experiments involving complexes of the present invention as compared to cisplatin (data not shown) were carried out with an apoptotic array containing 84 genes that includes the BCL2 superfamily, both pro- and anti-apoptotic, caspases, the BIR-family, TNF receptor […] factors, p53 and its congeners, and fas associated members by real-time PCR. A closer look at the two sets of gene expressions clearly indicates a number of differences in the expression patterns. […] Specifically, fas was over-expressed by 6-fold compared to the control, and TNFRS genes such as TNFRSF-10B was overexpressed by 2-3 folds over controls. These latter receptor factors belong to the fas superfamily.
For orientation: Quantitative PCR measures a nucleic acid by following its amplification.

In another data set the test system is BAK1. The data set is described as follows: Apoptotic gene array, real-time PCR: BAK1. It is filed as cell-based. To be noted: preliminary. How it is done: as §6
The test system of the next data set is BAX. As to the kind of experiment: Apoptotic gene array, real-time PCR: BAX. To be noted: preliminary. It is filed as cell-based. How it is done: as §6
Data set [7] concerns UMSCC10b (Cisplatin-sensitive) cells. To be noted: from Zheng et al., Clinical Cancer Research 1997; cited from earlier work.
Data set [8] concerns A2780/C30 cells. The data set is described as follows: Cellular accumulation of platinum by atomic absorption, A2780/C30. It is filed as cell-based, human. To be noted: at its IC50 value.

By IC50 is commonly meant the concentration that inhibits the measured activity by half. Take `N.N.O=P1(O)[O][Pt][O]P(=O)(O)O1` [am-2, Diammine(dihydrogen pyrophosphato)platinum(II)]: in data set [1], the pKa1 is 2.9 ± 0.3. Moreover, in [1], the pKa2 is 4.7 ± 0.2. Also, the “pKa1 (value in parentheses)” value in data set [1] (second value printed in parentheses under pKa1, not explained) is listed as “(3.8 ± 0.1)”. The IC50 is 100 ± 11 µM in [2], above 200 µM in [3] and 120 ± 30 µM in the data set on CHO cell line. The “guanine base binding (H8 signal)” value in the data set on guanine base is on record as “only indicates the unbound guanine H8 signal but not platinum bound signal”.
For the molecule `NC1CCCCC1N.O=P([O-])(O)OP(=O)([O-])O.[OH-].[OH-].[Pt+4]` [dach-4, (Trans-1,2-cyclohexanediamine)-trans-dihyroxo(dihydrogenpyrophosphato)platinum(IV)], the IC50 in data set [2] was 180 ± 15 µM; in data set [3], 155 ± 17 µM; with CHO cell line, 116 ± 17 µM.
For `N.N.O=P1(O)OP(=O)(O)[O][Pt]([OH])([OH])[O]1` [am-4, Cis-diammine-trans-dihydroxo(dihydrogen pyrophosphato)platinum (IV)], in data set [1], the pKa1 was 2.0 ± 0.1. Besides, in [1], the pKa2 is recorded as 4.7 ± 0.1. For the same molecule, the IC50 in data set [2] is 175 ± 22 µM; in data set [3], above 200 µM; in the data set with CHO cell line, above 200 µM.
`N.N.[Cl][Pt][Cl]` [Cisplatin, cisdiamminedichloroplatinum(II), reference compound]: the IC50 in data set [2] was 7.5 ± 1.5 µM; in data set [3], 110 ± 11.3 µM; in the data set with CHO cell line it was 29 ± 3 µM; in data set [7], 17 µM. For the same molecule, the “Cellular accumulation of platinum” value was found to be 3.00 ± 0.05 ng/10^6 cells in the data set with A2780 cells (A2780, 10 μM); 5.00 ± 0.06 ng/10^6 cells in the data set with A2780 cells (A2780, 20 μM); 6.00 ± 0.10 ng/10^6 cells in the data set on A2780 cells (A2780, 30 μM); 20.00 ± 1.00 ng/10^6 cells in the data set on A2780 cells (A2780, 50 μM); 1.00 ± 0.10 ng/10^6 cells in the data set with A2780/C30 cells [4] (A2780/C30, 10 μM); 2.00 ± 0.40 ng/10^6 cells in the data set with A2780/C30 cells [4] (A2780/C30, 20 μM). For the same molecule, the “Cellular accumulation of platinum” value in the data set on A2780/C30 cells [4] (A2780/C30, 30 μM) turned out to be 2.00 ± 0.50 ng/10^6 cells; in the data set on A2780/C30 cells [4] (A2780/C30, 50 μM), 5.00 ± 1.00 ng/10^6 cells. Besides, in the data set with A2780 cells (at 10 μM concentration), the “accumulation in A2780 cells” value came to 3.0 ng Pt/10^6 cells. Further, in the data set on guanine base, the “guanine base binding (H8 signal)” value is recorded as “additional signal at 8.43 ppm for H8 proton due to guanine binding to cisplatin”. Moreover, the “DNA binding, 25-mer oligonucleotide” value in data set [5] is recorded as “readily forms covalent adducts with DNA”. Besides, the “adduct formation with nucleotides” value in [6] was “readily formed adducts with all the nucleotides”. Besides, in the data set with fas, the “fas over-expression compared to the control” value is listed as “no significant over-expression; also recorded: marginal changes”. Further, the BAK1 overexpression result with BAK1 was “did not make significant changes”. In addition, the BAX overexpression entry with BAX is reported as “did not make significant changes”. Further, the “platinum accumulation in the resistant cell lines” value with A2780/C30 cells [8] was above 5 ng Pt/10^6 cells.
Take `N.N.O=C([O-])C1(C(=O)[O-])CCC1.[Pt+2]` [Carboplatin, diammine-1,1-dicarcarboxylatocyclobutane-platinum(II), reference compound]: the IC50 is 90 ± 13 µM in [2], above 200 µM in data set [3] and above 200 µM in the data set with CHO cell line.
As to `NCCN.O=P([O-])(O)OP(=O)([O-])O.[Pt+2]` [en-2, 1,2-Ethanediamine(dihydrogenpyrophosphato)platinum(II)], in data set [1], the pKa1 is recorded as 2.2 ± 0.1 and the pKa2 is 4.4 ± 0.1.
As for `NCCN.O=P([O-])(O)OP(=O)([O-])O.[OH-].[OH-].[Pt+4]` [en-4, 1,2-Ethanediamine-trans-dihydroxo(dihydrogenpyrophosphato)platinum(IV)], the pKa1 in data set [1] is recorded as below 2. Also, the pKa2 in data set [1] is recorded as 4.3 ± 0.1. Further, the IC50 was 170 ± 33 µM in data set [2], above 200 µM in [3] and above 200 µM in the data set on CHO cell line.
